Where two headings read alike, the source gives them in different places.
Experiments:
MDA 231 cells = experiment: Cell growth inhibition: MTT assay, MDA 231 (ER- breast carcinoma); type: cell-based; settings: Homo sapiens, MDA-MB-231, read-out: % inhibition of cell growth compared to no drug control
Experimental: ER- breast carcinoma, human (MDA-231) obtained from ATCC (HTB 22), were grown in Eagle's MEM medium supplemented with non-essential amino acids, sodium pyruvate, and Earle's BSS, 10% FBS, and 13 ng/mL gentamicin. Cells were incubated at 37° C., 4.5% CO2 and 95.5% humidified air.
1. Cell growth inhibition: MTT Assay
The compounds of formula 1 were tested for ability to inhibit cell growth using the standard MTT assay, a tetrazolium-based assay which measures the viability of cells in culture. Cells were harvested upon reaching 70-80% confluency and pelleted. The cells were then resuspended in medium in which FBS was replaced with Hyclone's Charcoal/Dextran stripped FBS, and seeded (2 mL/well) into 6-well plates (Corning) at a density allowing for linear growth over a four day assay period. Compounds of formula 1 (10 mM stock in dimethylsulfoxide (DMSO)) were added 18-24 hours post-seeding. Compound dilutions were prepared in the appropriate growth media and added to the cells for final concentrations of 10, 3.3 and 1 μM in 0.1% DMSO. At 24, 48 and 72 hr. time points, MTT (3-[4,5-dimethylthiazol-2-yl-2,5-diphenyltetrazolium bromide) stock solution (5mg/mL in 1 PBS) was added to the cells plates (625 μL/well) which were then incubated for 2.5 hours. Liquid was aspirated from the wells and 1 mL/well of 95% ethanol was added to solubilize the formazan reaction product. The plates were shaken (Bellco Mini-Orbital Shaker) for 15 minutes. The solubilized formazan was then transferred (50 μls) into a 96-well plate and the optical densities (OD) were measured (Bio-Tek Microplate Reader) at 570 nm and reference wavelength of 660 nm. Percentage of inhibition of cell growth was calculated according to the following formula: [formula]

RKO cells = experiment: Apoptosis: cell death detection by ELISA, RKO (colorectal carcinoma); type: cell-based, human; settings: for fold induction at 1 µM / fold induction at 3.3 µM / fold induction at 10 µM: Homo sapiens, RKO, read-out: Fold induction of apoptosis compared to no drug control
Experimental: Colorectal carcinoma, human (RKO) obtained from Dr. Bernie Vogelstein, were grown in Gibco's Delbecco Minimum Essential media (DMEM), high glucose, supplemented with sodium pyruvate, 10% FBS and 13 ng/mL gentamicin. Cells were incubated at 37° C., 4.5% CO2 and 95.5% humidified air.
2. Apoptosis: Cell death detection by ELISA:
Compounds of formula 1 were tested for the ability to cause apoptosis as follows:
Cells and media were collected, cells were pelleted, resuspended in 100 μl lysis buffer (50 mM Tris-Cl (pH=8.0), 20 mM EDTA, 1% NP-40e) and incubated 30 minutes at 4° C. to lyse. Cell debris was spun down and an aliquot (30 μl) of the […] was removed for protein determination and stored at -20° C. An additional 280 μl of lysis buffer, was added, mixed thoroughly and spun down at 14,000 RPM for 10 minutes at 4° C. An aliquot was removed (180 μl) and the sample was stored at -20° C. until testing.
A commercially available apoptosis detection kit, obtained from Boehringer Mannheim (Cat. No. 1544-674), was used as per the directions provided with the kit (Cell Death Detection ELISA). However, the protocol was modified in that a 1:40 to 1:100 dilution of sample was prepared, rather than the recommended 1:10 dilution, due to the increase in cell number used to prepare the sample extract and the subsequent increase in ELISA reactivity. The assay measures apoptosis by quantifying the amount of nucleosomal fragmentation from the extracts of cells treated with the test compounds (samples). These nucleosomal fragments, generated by the activation of endonucleases, are a known downstream effector of apoptosis. Antihistone antibodies are used to fix any nucleosomal fragments in the sample to the well of the microtiter plates. The sample is then incubated with anti-DNA antibodies conjugated to peroxidase and subsequently incubated with the peroxidase substrate, ABTS. The resulting colorimetric change is measured spectrophotometrically at 405/490nm.
The total protein content of each sample was determined for the purpose of normalizing the ELISA values to amount of sample loaded. Microplate assay protocol described in the instruction manual, for (Biorad DC Assay, Cat.#500-0116) section 5.2. The protein concentrations were calculated based upon a linear regression curve.
d) ELISA assay calculations
Relative ELISA O.D. readings are determined by subtracting the ELISA plate background O.D. value. No drug control O.D. value (lysis buffer only) was subtracted from sample O.D. value. A correction coefficient (CC), based on the sample protein concentration compared to no drug control, was determined to correct the sample O.D. following subtraction of the background O.D. (BCS O.D.). The fold increase over no drug control is calculated and normalized to the total protein concentration of the samples by multiplying against the correction coefficient.
To determine the fold increase in ELISA O.D., obtain the following O.D. measurements:
ELISA plate background--lysis buffer only (EPB);
no drug treated control--cell sample treated with DMSO (NDT);
drug treated sample--cell sample treated with a compound of formula 1 (DT) Subtract EPB from NDT (NDT-EPB) and DT (DT-EPB). The fold increase of the treated over the control is then (DT-EPB)/(NDT-EPB).
To determine the total protein concentration of the samples, obtain the total protein concentration in mg/ul calculated using standard linear regression formula (y=mx+b) based on BSA standards. B=ELISA background. Protein concentration (PC)(mg/ml)=(sample absorbance-b)/x.
Correction coefficient (cc) is (NDT)(PC)/(DT)(PC).
Determine fold increase of ELISA (FT) normalized to total PC:
nDT is DT×cc (which is DT O.D. normalized to PC)
nNDT is NDT×cc (which is NDT O.D. normalized to PC)
FI normalized to PC is nDT/nNDT.

## C/C(=C/C=C/C(C)=C/C(=O)Nc1ccc(O)cc1)c1cc(C(F)(F)F)cc(C(F)(F)F)c1 [N-(4-hydroxyphenyl)-(2E,4E,6Z)-7-[3,5-bis(trifluoromethyl)phenyl]-3,7-dimethyl-2,4,6-heptatrienamide]
MDA 231 cells; 24 hours
  inhibition at 1 µM: 18%
  inhibition at 3.3 µM: 30%
  inhibition at 10 µM: 26%
MDA 231 cells; 48 hours
  inhibition at 1 µM: 39%
  inhibition at 3.3 µM: 35%
  inhibition at 10 µM: 61%
MDA 231 cells; 72 hours
  inhibition at 1 µM: 46%
  inhibition at 3.3 µM: 62%
  inhibition at 10 µM: 71%
RKO cells; 24 hrs
  fold induction at 1 µM: 2
  fold induction at 3.3 µM: 14
  fold induction at 10 µM: 21
RKO cells; 48 hrs
  fold induction at 1 µM: 4
  fold induction at 3.3 µM: 5
  fold induction at 10 µM: 23
RKO cells; 72 hrs
  fold induction at 1 µM: 1
  fold induction at 3.3 µM: 1
  fold induction at 10 µM: 15
RKO cells; after 24 hours
  Induction of apoptosis (in words): induces significant apoptosis

Reference: patent US6310247A, “7-aryl-6(Z)-heptatrienoic acid retinamides” (Hoffmann-LA Roche Inc., priority 1999, dated 2001)
